Binding % data for 15 compounds are collected here from patent publication US10646488B2 (Araxes Pharma LLC, priority 2016, dated 2020).

Structures are written as SMILES.

For one experiment, the target named is T1, KRAS G12C 1-169, his-tagged protein, GDP-loaded (Homo sapiens, UniProt P01116, G12C).
T1 construct: KRAS G12C 1-169, his-tagged protein, GDP-loaded
Briefly: Covalent binding (% modification) to KRAS G12C by mass spectrometry. Also: test concentration or dose not given here. To be noted: covalent binding to KRAS G12C after a ten minute incubation period.
`C=CC(=O)N1CCN(c2nc(N3CC(N(C)C)C3)nc3c(F)c(-c4c(O)cccc4F)c(Cl)cc23)C[C@H]1C` (atropisomer, axis not shown) [Compound 60, 1-((R)-4-((S)-6-chloro-2-(3-(dimethylamino)azetidin-1-yl)-8-fluoro-7-(2-fluoro-6-hydroxyphenyl)quinazolin-4-yl)-2-methyl-piperazin-1-yl) prop-2-en-1-one]: the Binding % entry was “+++ (+++ indicates binding activity greater than 90%)”. As for `C=CC(=O)N1C[C@@H](C)N(c2nc(OCCc3ccccn3)nc3c(F)c(-c4c(O)cccc4F)c(Cl)cc23)[C@@H](C)C1` [Compound 49, 1-((3S,5R)-4-(6-chloro-8-fluoro-7-(2-fluoro-6-hydroxyphenyl)-2-(2-(pyridin-2-yl)ethoxy)quinazolin-4-yl)-3,5-dimethyl-piperazin-1-yl) prop-2-en-1-one], the Binding % result is listed as “++ (++ indicates binding activity from 50 to 90%)”. In the case of `C=CC(=O)N1CCN(c2nc(OCCN3CC(F)(F)C3)nc3c(F)c(-c4c(O)cccc4F)c(Cl)cc23)C[C@H]1C` [Compound 57, 1-((2R)-4-(6-chloro-2-(2-(3,3-difluoroazetidin-1-yl)ethoxy)-8-fluoro-7-(2-fluoro-6-hydroxyphenyl)quinazolin-4-yl)-2-methyl-piperazin-1-yl) prop-2-en-1-one], the Binding % entry is recorded as “+++ (+++ indicates binding activity greater than 90%)”. Take `C=CC(=O)N1CCN(c2nc(OCCN(CC)CC)nc3c(F)c(-c4c(O)cccc4F)c(Cl)cc23)[C@@H](C)C1` [Compound 9, 1-((3S)-4-(6-chloro-2-(2-(diethylamino)ethoxy)-8-fluoro-7-(2-fluoro-6-hydroxyphenyl)quinazolin-4-yl)-3-methylpiperazin-1-yl)prop-2-en-1-one]: the Binding % result was “++ (++ indicates binding activity from 50 to 90%)”. Turning to `C=CC(=O)N1C[C@@H](C)N(c2nc(N)nc3c(F)c(-c4c(C)ccc5cn[nH]c45)c(Cl)cc23)[C@@H](C)C1` [Compound 31, 1-((3S,5R)-4-(2-amino-6-chloro-8-fluoro-7-(6-methyl-1H-indazol-7-yl)quinazolin-4-yl)-3,5-dimethyl-piperazin-1-yl) prop-2-en-1-one], the Binding % result was “++ (++ indicates binding activity from 50 to 90%)”. `C=CC(=O)N1[C@H](C)CN(c2nc(OCCN3CC(F)(F)C3)nc3c(F)c(-c4c(C)ccc5cn[nH]c45)c(Cl)cc23)C[C@@H]1C` [Compound 30, 1-((2R,6S)-4-(6-chloro-2-(2-(3,3-difluoroazetidin-1-yl)ethoxy)-8-fluoro-7-(6-methyl-1H-indazol-7-yl)quinazolin-4-yl)-2,6-dimethyl-piperazin-1-yl) prop-2-en-1-one]: the Binding % entry is “++ (++ indicates binding activity from 50 to 90%)”.

Still in this experiment, the particulars now being: covalent binding to KRAS G12C after a three minute incubation period.
For `C=CC(=O)N1C[C@H](C)N(c2nc(N3CC(N(CC)CC)C3)nc3c(F)c(-c4c(C)ccc5cn[nH]c45)c(Cl)cc23)C[C@H]1C` [Compound 117, 1-((2R,5S)-4-(6-chloro-2-(3-(diethylamino)azetidin-1-yl)-8-fluoro-7-(6-methyl-1H-indazol-7-yl)quinazolin-4-yl)-2,5-dimethyl-piperazin-1-yl) prop-2-en-1-one], the Binding % result is “+ (+ indicates binding activity greater than 0% and up to 50%)”. For the compound `C=CC(=O)N1C[C@H](C)N(c2nc(N3CC(N(C)C)C3)nc3c(F)c(-c4cc5ccccc5cc4O)c(Cl)cc23)C[C@H]1C` [Compound 146, 1-((2R,5S)-4-(6-chloro-2-(3-(dimethylamino)azetidin-1-yl)-8-fluoro-7-(3-hydroxynaphthalen-2-yl)quinazolin-4-yl)-2,5-dimethyl-piperazin-1-yl) prop-2-en-1-one], the Binding % result was “+ (+ indicates binding activity greater than 0% and up to 50%)”. Turning to `C=CC(=O)N1C[C@H](C)N(c2nc(N3CC(N(C)C)C3)nc3c(F)c(-c4c(O)cccc4F)c(Cl)cc23)C[C@@H]1C` [Compound 94, 1-((2S,5S)-4-(6-chloro-2-(3-(dimethylamino)azetidin-1-yl)-8-fluoro-7-(2-fluoro-6-hydroxyphenyl)quinazolin-4-yl)-2,5-dimethyl-piperazin-1-yl) prop-2-en-1-one], the Binding % entry was “+ (+ indicates binding activity greater than 0% and up to 50%)”.

Take `CC(C)/C=C(\C#N)C(=O)N1C[C@H](C)N(c2nc(N3CC(N(C)C)C3)nc3c(F)c(-c4c(O)cccc4F)c(Cl)cc23)C[C@H]1C` [Compound 101, (E)-2-((2R,5S)-4-(6-chloro-2-(3-(dimethylamino)azetidin-1-yl)-8-fluoro-7-(2-fluoro-6-hydroxyphenyl)quinazolin-4-yl)-2,5-dimethyl-piperazine-1-carbonyl)-4-methylpent-2-enenitrile]: the Binding % result was “+ (+ indicates binding activity greater than 0% and up to 50%)”. The same measure, in the same setting: in the case of `C[C@@H]1CN(c2nc(N3CC(N(C)C)C3)nc3c(F)c(-c4c(O)cccc4F)c(Cl)cc23)[C@@H](C)CN1C(=O)/C(C#N)=C/c1ccccn1` [Compound 111, (E)-2-((2R,5S)-4-(6-chloro-2-(3-(dimethylamino)azetidin-1-yl)-8-fluoro-7-(2-fluoro-6-hydroxyphenyl)quinazolin-4-yl)-2,5-dimethyl-piperazine-1-carbonyl)-3-(pyridin-2-yl) acrylonitrile] it was “+ (+ indicates binding activity greater than 0% and up to 50%)”. Turning to `C=CC(=O)N1C[C@H](C)N(c2nc(OCCN3CC(F)(F)C3)nc3c(F)c(-c4c(O)cccc4F)c(Cl)cc23)C[C@H]1C` (atropisomer, axis not shown) [Compound 89, 1-((2R,5S)-4-(6-chloro-2-(2-(3,3-difluoroazetidin-1-yl)ethoxy)-8-fluoro-7-((R)-2-fluoro-6-hydroxyphenyl)quinazolin-4-yl)-2,5-dimethyl-piperazin-1-yl) prop-2-en-1-one], the Binding % result is “+ (+ indicates binding activity greater than 0% and up to 50%)”. `C=CC(=O)N1C[C@H](C)N(c2nc(OCCN(CC)CC)nc3c(F)c(-c4c(C)ccc5cn[nH]c45)c(Cl)cc23)C[C@H]1C` (atropisomer, axis not shown) [Compound 156, 1-((2R,5S)-4-(6-chloro-2-(2-(diethylamino)ethoxy)-8-fluoro-7-((R)-6-methyl-1H-indazol-7-yl)quinazolin-4-yl)-2,5-dimethyl-piperazin-1-yl) prop-2-en-1-one]: the Binding % result is recorded as “+++ (+++ indicates binding activity greater than 90%)”. For `C=CC(=O)N1C[C@H](C)N(c2nc(OCCc3ncccn3)nc3c(F)c(-c4c(O)cccc4F)c(Cl)cc23)C[C@H]1C` [Compound 198, 1-((2R,5S)-4-(6-chloro-8-fluoro-7-(2-fluoro-6-hydroxyphenyl)-2-(2-(pyrimidin-2-yl)ethoxy)quinazolin-4-yl)-2,5-dimethyl-piperazin-1-yl) prop-2-en-1-one], the Binding % entry was “+++ (+++ indicates binding activity greater than 90%)”.

On to `C=CC(=O)N1C[C@H](C)N(c2nc(N3CC(N(C)CC)C3)nc3c(F)c(-c4c(O)cccc4F)c(Cl)cc23)C[C@H]1C` (atropisomer, axis not shown) [Compound 154, 1-((2R,5S)-4-(6-chloro-2-(3-(ethyl(methyl)amino)azetidin-1-yl)-8-fluoro-7-((S)-2-fluoro-6-hydroxyphenyl)quinazolin-4-yl)-2,5-dimethyl-piperazin-1-yl) prop-2-en-1-one], for which the Binding % entry is recorded as “+++ (+++ indicates binding activity greater than 90%)”.
